“And” between values parts separate entries of the source, which are not always exact repeats. Equal values may be shown once. Read-outs that look alike come from different tables or passages of the source.
Key:
C. albicans [1] = assay: Immunocompromised mouse model of systemic candidiasis; format: in vivo; conditions: compound 4 at 2-10 mg/kg i.p. daily with ketoconazole 20 mg/kg i.p. daily, 7 days; immunocompromised mice; FIG. 4
Procedure: The standard method for the mouse candidiasis studies is as follows. Female CD-1 mice are immunocompromised by injecting 240 mg/kg cyclophosphamide on day -3 then 80 mg/kg cyclophosphamide on days 1 and 5. C. albicans is grown in Sabouraud agar, cells are resuspended in 0.9% saline and counted in a hemacytometer. […] Mice are treated with ketoconazole +/− test compound daily for seven days, starting one day after the infection. They are monitored daily for weight loss and death. Mice are sacrificed on day 8 and the kidneys are removed and homogenized and fungal load (CFU) per pair of kidneys determined.

Fusarium sp. = assay: Clinical isolates of other fungal species, checkerboard; format: cell-based
Procedure: To determine the synergy between Compound 4 and azoles against other fungal species, a series of clinical isolates (Micheal Rinaldi, University of Texas Health Science Center) was tested by the checkerboard method as described in Example 1.

Aspergillus terreus = assay: as above; format: cell-based
C. dubliniensis = assay: Clinical isolates, CLSI M27-A2 broth microdilution and checkerboard; format: cell-based
Mucor Sp. = assay: Clinical isolates of other fungal species, checkerboard; format: cell-based
C. glabrata [2] = assay: Post-antifungal effect (PAFE); format: cell-based
Procedure: The post-antifungal effect (PAFE) is the time needed to achieve one log10 of cell growth after drug removal. One-two colonies are resuspended in 5 ml YPD. […] Cells are incubated at 30° C. overnight. In the morning, the optical density at 600 nm is read. Cells at A600 the closest but not surpassing 0.3 (early log-phase cells) are picked for further treatments as follows: […] Counts of CFU/ml are performed at time zero, before and after diluting the cells and at predetermined time points in order to determine the PAFE and the cidal potential of each drug combination (FIGS. 5-10).

HDAC [3] = assay: HDAC inhibitory activity in fungal protoplasts (Fluor-de-Lys); format: cell-based, Candida glabrata; conditions: C. glabrata protoplasts
Procedure: (§1) Protoplasts of C. albicans and C. glabrata are prepared by the […] method of Franzusoff et al.

C. krusei = assay: Clinical isolates, CLSI M27-A2 broth microdilution and checkerboard; format: cell-based; conditions: for minimum Compound 4 concentration at which Compound 4 alone inhibited growth (number in brackets): C. krusei clinical isolates
Aspergillus spp. = assay: Clinical isolates, checkerboard, summary over 16 isolates; format: cell-based
HDAC [4] = assay: HDAC inhibitory activity in fungal protoplasts (Fluor-de-Lys); format: cell-based, Candida albicans; conditions: C. albicans protoplasts
Procedure: as §1

C. lusitaniae = assay: Clinical isolates, CLSI M27-A2 broth microdilution and checkerboard; format: cell-based
C. glabrata (ATCC 90030) [5] = format: cell-based
C. glabrata [6] = assay: Clinical isolates, CLSI M27-A2 broth microdilution and checkerboard; format: cell-based
A. fumigatus ATCC 1022 = assay: MIC80 and checkerboard synergy, broth microdilution (NCCLS M38-A); format: cell-based, Aspergillus fumigatus
C. albicans [7] = assay: Clinical isolates, CLSI M27-A2 broth microdilution and checkerboard; format: cell-based; conditions: Cpd 4 with voriconazole
Candida spp. = assay: Clinical isolates, checkerboard, summary over 45 isolates; format: cell-based; conditions: for isolates with synergy / isolates tested: 45 clinical isolates of Candida spp.
C. glabrata (ATCC 90030) [8] = assay: MIC80 and checkerboard synergy with antifungal agents; format: cell-based, Candida glabrata; conditions: for Cpd 4 Conc for 4-fold synergy: C. glabrata (90030)
A. fumigatus = assay: Clinical isolates, CLSI M38-A broth microdilution and checkerboard; format: cell-based
C. krusei (14243) = assay: MIC and checkerboard synergy with azoles; format: cell-based, Candida krusei
Procedure: For susceptibility studies, overnight cultures of both Candida species are diluted 1:100 in YEPD medium, grown for 4 h at 30° C., counted in a hemocytometer, then diluted to a concentration of 5×10^3 cells/ml. […] Synergy, determined by the checkerboard method, is defined as a decrease in MIC of antifungal agent that is more than additive of the MIC of the histone deacetylase inhibitor and the antifungal agent alone.

Trichosporon = assay: Clinical isolates of other fungal species, checkerboard; format: cell-based
C. tropicalis = assay: Fungicidal activity (CFU counts); format: cell-based; conditions: voriconazole with Compound 4, data not shown
[9] = Cpd 4 with fluconazole, C. dubliniensis clinical isolates
[10] = Cpd 4 with voriconazole, C. dubliniensis clinical isolates
[11] = Aspergillus spp. clinical isolates
[12] = Trichosporon, **MIC of azole <0.06 μg/ml, too low to determine synergistic concentration

With `O=C(Cc1ccc(CCCCc2ccccc2)cc1)NO` [Cpd 4] the “effect on the activity of ketoconazole (fungal load, CFU per pair of kidneys)” value (C. albicans [1]) was “enhancing (i.e., synergistic) effect”, the “Synergy with Cpd 4 (strains showing synergy/total strains tested) Itraconazole” value (Fusarium sp.; Fusarium sp.) was 1/3 and the MIC (Fusarium sp.; Fusarium sp. clinical isolates, read-out: Cpd 4 MIC) was 8 µg/mL. The “Synergy with Cpd 4 (strains showing synergy/total strains tested) Voriconazole” value (Fusarium sp.; Fusarium sp., *Synergy occurs at ½ MIC of Cpd 4) was 3/3*, the “Synergy with Cpd 4 (strains showing synergy/total strains tested) Itraconazole” value (Aspergillus terreus; Aspergillus terreus) was 3/3 and the “Synergy with Cpd 4 (strains showing synergy/total strains tested) Voriconazole” value (Aspergillus terreus; Aspergillus terreus) was 3/3. The MIC (Aspergillus terreus; Aspergillus terreus clinical isolates, read-out: Cpd 4 MIC) was greater than 8 µg/mL, the “FLU/Cpd 4 FIC” value (C. dubliniensis; [9]) was 2.0 and the “FLU/Cpd 4 FIC interpretation” value (C. dubliniensis; [9]) was “(I) (I = indifference)”. The “VOR/Cpd 4 FIC” value (C. dubliniensis; [10]) was 2.0, the “VOR/Cpd 4 FIC interpretation” value (C. dubliniensis; [10]) was “(I) (I = indifference)” and the “minimum Compound 4 concentration at which Compound 4 alone inhibited growth (number in brackets)” value (C. dubliniensis; FLU checkerboard, C. dubliniensis clinical isolates) was 0.03 µg/mL. The “minimum Compound 4 concentration at which Compound 4 alone inhibited growth (number in brackets)” value (C. dubliniensis; VOR checkerboard, C. dubliniensis clinical isolates) was 0.12 µg/mL, the “activity of Compound 4 alone” value (C. dubliniensis; all 4 clinical isolates of C. dubliniensis) was “potent activity alone” and the “Synergy with Cpd 4 (strains showing synergy/total strains tested) Itraconazole” value (Mucor Sp.; Mucor Sp.) was 1/3. The “Synergy with Cpd 4 (strains showing synergy/total strains tested) Voriconazole” value (Mucor Sp.; Mucor Sp.) was 0/3, the MIC (Mucor Sp.; Mucor Sp. clinical isolates, read-out: Cpd 4 MIC) was 8 µg/mL and the PAFE (C. glabrata [2]; Compound 4 combined with voriconazole, FIGS. 5 and 6C) was roughly 1 h. The PAFE (C. glabrata [2]; itraconazole combined with Compound 4, FIG. 7) was 0.5 h, the “HDAC inhibition IC50” value (HDAC [3]) was >20 (20%) μg/ml and the “HDAC inhibition, per cent in parentheses beside IC50 >20” value (HDAC [3]; concentration not given) was >20 (20%). For the same compound, the “FLU/Cpd 4 FIC interpretation” value (C. krusei; Cpd 4 with fluconazole, C. krusei clinical isolates and QC 6258) was “(S) (S = synergy)”, the “VOR/Cpd 4 FIC” value (C. krusei; Cpd 4 with voriconazole, C. krusei clinical isolates and QC 6258) was 0.6 and 0.5 and 0.3 and the “minimum Compound 4 concentration at which Compound 4 alone inhibited growth (number in brackets)” value (C. krusei; FLU checkerboard) was 0.5 µg/mL. The “minimum Compound 4 concentration at which Compound 4 alone inhibited growth (number in brackets)” value (C. krusei; VOR checkerboard) was 0.25 µg/mL and 0.5 µg/mL, the “Compound 4 concentrations required for 4-fold reductions in azole MIC” value (Aspergillus spp.; [11]) was 1 to 8 µg/mL and the “in vitro antagonism of Compound 4-azole combination” value (Aspergillus spp.; [11]) was “none of the isolates tested”. The “number of isolates with additivity” value (Aspergillus spp.; Compound 4 with VOR and ITR, of 16 Aspergillus spp. isolates) was 4, the “number of isolates with synergy” value (Aspergillus spp.; Compound 4 with both VOR and ITR, of 16 Aspergillus spp. isolates) was 11 and the “HDAC inhibition IC50” value (HDAC [4]) was greater than 20 µg/mL. For the same compound, the “FLU/Cpd 4 FIC” value (C. lusitaniae; Cpd 4 with fluconazole) was less than 0.1, the “FLU/Cpd 4 FIC interpretation” value (C. lusitaniae; Cpd 4 with fluconazole) was “(S) (S = synergy)” and the “VOR/Cpd 4 FIC interpretation” value (C. lusitaniae; Cpd 4 with voriconazole) was “(S) (S = synergy)”. The “minimum Compound 4 concentration at which Compound 4 alone inhibited growth (number in brackets)” value (C. lusitaniae; VOR checkerboard) was 4 µg/mL, the “frequency of resistant mutants” value (C. glabrata (ATCC 90030) [5]; 4× synergistic MIC80 concentrations of Compound 4 and fluconazole) was 2×10^−7 and the “frequency of resistant mutants” value (C. glabrata (ATCC 90030) [5]; 4× the synergistic MIC80 of Compound 4 and itraconazole) was 1×10^−7. The resistant mutants detected (C. glabrata (ATCC 90030) [5]; Compound 4 and itraconazole at 2×MIC) was “no mutants were detected”, the “Conc. Cpd 4 for 4-fold decrease” value (C. glabrata [6]; 4-fold reduction of FLU MIC, C. glabrata clinical isolates) was 0.5 µg/mL and the “Conc. Cpd 4 for 4-fold decrease” value (C. glabrata [6]; 4-fold reduction of VOR MIC, C. glabrata clinical isolates) was 0.5 µg/mL. For the same compound, the “FLU/Cpd 4 FIC” value (C. glabrata [6]; Cpd 4 with fluconazole, C. glabrata clinical isolates) was 0.5, the “VOR/Cpd 4 FIC interpretation” value (C. glabrata [6]; Cpd 4 with voriconazole, C. glabrata clinical isolates) was “(S) (S = synergy)” and the “minimum Compound 4 concentration at which Compound 4 alone inhibited growth (number in brackets)” value (C. glabrata [6]; FLU checkerboard, C. glabrata clinical isolates) was 0.5 µg/mL. The “minimum Compound 4 concentration at which Compound 4 alone inhibited growth (number in brackets)” value (C. glabrata [6]; VOR checkerboard, C. glabrata clinical isolates) was 0.5 µg/mL, the “Compound 4 concentration for 4-fold reduction in azole MIC” value (C. glabrata [6]; all 14 C. glabrata clinical isolates (9 FLU-R)) was less than 0.5 µg/mL and the MIC (A. fumigatus ATCC 1022; Aspergillus fumigatus, ATCC1022, A. fumigatus (1022), read-out: Cpd 4 MIC) was 2 to 5 µg/mL. The “Cpd 4 Conc for 4-fold synergy” value (A. fumigatus ATCC 1022; with itraconazole, A. fumigatus (1022)) was 5 µg/mL, the “Cpd 4 Conc for 4-fold synergy” value (A. fumigatus ATCC 1022; with ketoconazole, A. fumigatus (1022)) was 2.5 µg/mL and the “conc. for 4-fold synergy” value (A. fumigatus ATCC 1022; with ketoconazole, A. fumigatus ATCC 1022, 48 hours) was 0.5 µg/mL. The “Cpd 4 Conc for 4-fold synergy” value (A. fumigatus ATCC 1022; with voriconazole, A. fumigatus (1022)) was 5 µg/mL, the “VOR/Cpd 4 FIC interpretation” value (C. albicans [7]) was “(S) (S = synergy)” and the “in vitro antagonism of Compound 4-azole combination” value (Candida spp.; Candida spp. clinical isolates) was “none of the isolates tested”. For the same compound, the “isolates with synergy / isolates tested” value (Candida spp.; Compound 4 with FLU) was 34/45, the “isolates with synergy / isolates tested” value (Candida spp.; Compound 4 with VOR) was 37/45 and the “Conc. Cpd 4 for 4-fold decrease” value (C. glabrata (ATCC 90030) [8]; 4-fold decrease of fenpropimorph MIC, C. glabrata) was 0.78 µg/mL. For the same compound, the MIC (C. glabrata (ATCC 90030) [8]; Nakaseomyces glabratus, ATCC90030, compound alone, C. glabrata (ATCC 90030), read-out: MIC80) was 6.25 µg/mL, the “concentration at which Compound 4 synergizes with fenpropimorph” value (C. glabrata (ATCC 90030) [8]; against C. glabrata) was 2 µg/mL and the “Cpd 4 Conc for 4-fold synergy” value (C. glabrata (ATCC 90030) [8]; with itraconazole) was 0.2 µg/mL. For the same compound, the “Cpd 4 Conc for 4-fold synergy” value (C. glabrata (ATCC 90030) [8]; with ketoconazole) was 0.25 µg/mL, the “Cpd 4 Conc for 4-fold synergy” value (C. glabrata (ATCC 90030) [8]; with voriconazole) was 0.39 µg/mL and the “ITR/Cpd 4 FIC interpretation” value (A. fumigatus; Cpd 4 with itraconazole) was “(S) (S = synergy)”. For the same compound, the “VOR/Cpd 4 FIC interpretation” value (A. fumigatus; Cpd 4 with voriconazole) was “(S) (S = synergy)”, the “minimum Compound 4 concentration at which Compound 4 alone inhibited growth (number in brackets)” value (A. fumigatus; ITR checkerboard) was 4.0 µg/mL and the MIC (C. krusei (14243); Pichia kudriavzevii, read-out: Cpd 4 MIC) was 3.1 to 6.3 µg/mL. The “Cpd 4 Conc for 4-fold synergy” value (C. krusei (14243); with itraconazole) was 0.39 µg/mL, the “Cpd 4 Conc for 4-fold synergy” value (C. krusei (14243); with ketoconazole) was 0.39 µg/mL and the “Cpd 4 Conc for 4-fold synergy” value (C. krusei (14243); with voriconazole) was 0.39 µg/mL. The MIC (Trichosporon; Trichosporon clinical isolates, read-out: Cpd 4 MIC) was 0.125 to 0.5 µg/mL, the “Synergy with Cpd 4 (strains showing synergy/total strains tested) Itraconazole” value (Trichosporon; [12]) was 1/3** and the “Synergy with Cpd 4 (strains showing synergy/total strains tested) Voriconazole” value (Trichosporon; [12]) was 0/3**. The “increase in voriconazole fungicidal activity” value (C. tropicalis) was 1.1-1.2 fold.

— patent US8759400B2, “Histone deacetylase inhibitors for enhancing activity of antifungal agents” (MethylGene Inc., priority 2005, dated 2014)
